Experimental data: the supplement of paper PMC10307832

Legend:
Test in all cases: relative viability (nuclei count vs DMSO), 5 days (fraction); higher = more cells survive
201T = tested on: 201T
Summary of the method: (§1)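 The day after seeding in 1536-well plates, lung cancer cell lines were treated by pin tool with a single drug, or with a fixed anchor-drug dose together with five library-drug doses (not always all listed) in √10 steps. After 5 days, a combined fix-and-stain solution (final 0.05% Triton X-100, 1% formaldehyde, 1 ug/ml Hoechst) was added. Nuclei counted on 4× images gave relative viability as treated counts over vehicle counts, reported as the median of duplicate plates.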

A-427 = tested on: A-427
Summary of the method: as §1

COR-L23 = tested on: COR-L23
Summary of the method: as §1

H3255 = tested on: H3255
Summary of the method: as §1

HCC-44 = tested on: HCC-44
Summary of the method: as §1

LC-2-ad = tested on: LC-2-ad
Summary of the method: as §1

LCLC-103H = tested on: LCLC-103H
Summary of the method: as §1

LCLC-97TM1 = tested on: LCLC-97TM1
Summary of the method: as §1

LU99A = tested on: LU99A
Summary of the method: as §1

NCI-H1563 = tested on: NCI-H1563
Summary of the method: as §1

NCI-H1650 = tested on: NCI-H1650
Summary of the method: as §1

NCI-H2228 = tested on: NCI-H2228
Summary of the method: as §1

NCI-H2347 = tested on: NCI-H2347
Summary of the method: as §1

NCI-H23 = tested on: NCI-H23
Summary of the method: as §1

NCI-H460 = tested on: NCI-H460
Summary of the method: as §1

NCI-H596 = tested on: NCI-H596
Summary of the method: as §1

NCI-H727 = tested on: NCI-H727
Summary of the method: as §1

PC-14 = tested on: PC-14
Summary of the method: as §1

PC-3 [JPC-3] = tested on: PC-3 [JPC-3]
Summary of the method: as §1

SW 1573 = tested on: SW 1573
Summary of the method: as §1

Q: How did the relative viability (201T; first compound 0.01 µM) turn out when `CCN(CC)CCCCNc1ncc2cc(-c3cc(OC)cc(OC)c3)c(NC(=O)NC(C)(C)C)nc2n1` + CC(C)C[C@H](NC(=O)[C@H](Cc1ccccc1)NC(=O)c1cnccn1)B(O)O [Bortezomib] (partner 0.002 µM) was run?
A: Its relative viability is 1.03.

Q: And the relative viability (201T; first compound 0.03162 µM)?
A: Its relative viability is 1.14.

Q: And the relative viability (201T; first compound 0.1 µM)?
A: The relative viability was 1.14.

Q: What about the relative viability (201T; first compound 0.3162 µM) of the same compound?
A: Its relative viability is 1.15.

Q: And the relative viability (201T; first compound 1 µM)?
A: Its relative viability is 0.976.

Q: And the relative viability (A-427; first compound 0.01 µM)?
A: Its relative viability is 1.1.

Q: What about the relative viability (A-427; first compound 0.03162 µM) of the same compound?
A: The relative viability was 0.989.

Q: What about the relative viability (A-427; first compound 0.1 µM) of the same compound?
A: Its relative viability is 1.12.

Q: And the relative viability (A-427; first compound 0.3162 µM)?
A: Its relative viability is 1.06.

Q: And the relative viability (A-427; first compound 1 µM)?
A: Its relative viability is 0.913.

Q: And the relative viability (COR-L23; first compound 0.01 µM)?
A: The relative viability was 1.19.

Q: And the relative viability (COR-L23; first compound 0.03162 µM)?
A: Its relative viability is 1.3.

Q: What about the relative viability (COR-L23; first compound 0.1 µM) of the same compound?
A: Its relative viability is 1.13.

Q: What about the relative viability (COR-L23; first compound 0.3162 µM) of the same compound?
A: Its relative viability is 1.13.

Q: And the relative viability (COR-L23; first compound 1 µM)?
A: The relative viability was 1.01.

Q: And the relative viability (H3255; first compound 0.01 µM)?
A: The relative viability was 0.762.

Q: What about the relative viability (H3255; first compound 0.03162 µM) of the same compound?
A: The relative viability was 0.773.

Q: And the relative viability (H3255; first compound 0.1 µM)?
A: The relative viability was 1.02.

Q: What about the relative viability (H3255; first compound 0.3162 µM) of the same compound?
A: Its relative viability is 1.21.

Q: What about the relative viability (H3255; first compound 1 µM) of the same compound?
A: Its relative viability is 0.656.

Q: And the relative viability (HCC-44; first compound 0.01 µM)?
A: Its relative viability is 0.908.

Q: And the relative viability (HCC-44; first compound 0.03162 µM)?
A: The relative viability was 0.883.

Q: What about the relative viability (HCC-44; first compound 0.1 µM) of the same compound?
A: The relative viability was 1.08.

Q: What about the relative viability (HCC-44; first compound 0.3162 µM) of the same compound?
A: Its relative viability is 1.03.

Q: And the relative viability (HCC-44; first compound 1 µM)?
A: Its relative viability is 0.896.

Q: What about the relative viability (LC-2-ad; first compound 0.01 µM) of the same compound?
A: Its relative viability is 0.998.

Q: And the relative viability (LC-2-ad; first compound 0.03162 µM)?
A: Its relative viability is 1.06.

Q: And the relative viability (LC-2-ad; first compound 0.1 µM)?
A: Its relative viability is 1.33.

Q: What about the relative viability (LC-2-ad; first compound 0.3162 µM) of the same compound?
A: The relative viability was 1.05.

Q: What about the relative viability (LC-2-ad; first compound 1 µM) of the same compound?
A: Its relative viability is 1.

Q: And the relative viability (LCLC-103H; first compound 0.01 µM)?
A: Its relative viability is 1.07.

Q: And the relative viability (LCLC-103H; first compound 0.03162 µM)?
A: Its relative viability is 1.06.

Q: What about the relative viability (LCLC-103H; first compound 0.1 µM) of the same compound?
A: Its relative viability is 1.09.

Q: What about the relative viability (LCLC-103H; first compound 0.3162 µM) of the same compound?
A: Its relative viability is 1.13.

Q: What about the relative viability (LCLC-103H; first compound 1 µM) of the same compound?
A: Its relative viability is 0.945.

Q: And the relative viability (LCLC-97TM1; first compound 0.01 µM)?
A: Its relative viability is 0.723.

Q: And the relative viability (LCLC-97TM1; first compound 0.03162 µM)?
A: The relative viability was 0.614.

Q: And the relative viability (LCLC-97TM1; first compound 0.1 µM)?
A: Its relative viability is 0.789.

Q: And the relative viability (LCLC-97TM1; first compound 0.3162 µM)?
A: The relative viability was 1.54.

Q: What about the relative viability (LCLC-97TM1; first compound 1 µM) of the same compound?
A: The relative viability was 0.305.

Q: And the relative viability (LU99A; first compound 0.01 µM)?
A: The relative viability was 1.03.

Q: What about the relative viability (LU99A; first compound 0.03162 µM) of the same compound?
A: The relative viability was 1.16.

Q: And the relative viability (LU99A; first compound 0.1 µM)?
A: Its relative viability is 1.34.

Q: What about the relative viability (LU99A; first compound 0.3162 µM) of the same compound?
A: The relative viability was 1.23.

Q: And the relative viability (LU99A; first compound 1 µM)?
A: The relative viability was 1.13.

Q: And the relative viability (NCI-H1563; first compound 0.01 µM)?
A: The relative viability was 0.722.

Q: And the relative viability (NCI-H1563; first compound 0.03162 µM)?
A: The relative viability was 0.847.

Q: What about the relative viability (NCI-H1563; first compound 0.1 µM) of the same compound?
A: Its relative viability is 0.818.

Q: What about the relative viability (NCI-H1563; first compound 0.3162 µM) of the same compound?
A: The relative viability was 0.809.

Q: And the relative viability (NCI-H1563; first compound 1 µM)?
A: The relative viability was 0.52.

Q: And the relative viability (NCI-H1650; first compound 0.01 µM)?
A: Its relative viability is 0.201.

Q: And the relative viability (NCI-H1650; first compound 0.03162 µM)?
A: Its relative viability is 0.217.

Q: What about the relative viability (NCI-H1650; first compound 0.1 µM) of the same compound?
A: Its relative viability is 0.233.

Q: And the relative viability (NCI-H1650; first compound 0.3162 µM)?
A: Its relative viability is 0.203.

Q: What about the relative viability (NCI-H1650; first compound 1 µM) of the same compound?
A: The relative viability was 0.197.

Q: And the relative viability (NCI-H2228; first compound 0.01 µM)?
A: The relative viability was 0.874.

Q: And the relative viability (NCI-H2228; first compound 0.03162 µM)?
A: Its relative viability is 0.997.

Q: And the relative viability (NCI-H2228; first compound 0.1 µM)?
A: Its relative viability is 1.24.

Q: And the relative viability (NCI-H2228; first compound 0.3162 µM)?
A: The relative viability was 1.11.

Q: And the relative viability (NCI-H2228; first compound 1 µM)?
A: The relative viability was 1.02.

Q: And the relative viability (NCI-H2347; first compound 0.01 µM)?
A: Its relative viability is 0.855.

Q: What about the relative viability (NCI-H2347; first compound 0.03162 µM) of the same compound?
A: The relative viability was 0.864.

Q: And the relative viability (NCI-H2347; first compound 0.1 µM)?
A: Its relative viability is 1.2.

Q: And the relative viability (NCI-H2347; first compound 0.3162 µM)?
A: Its relative viability is 1.16.

Q: And the relative viability (NCI-H2347; first compound 1 µM)?
A: Its relative viability is 0.639.

Q: What about the relative viability (NCI-H23; first compound 0.01 µM) of the same compound?
A: Its relative viability is 1.06.

Q: And the relative viability (NCI-H23; first compound 0.03162 µM)?
A: The relative viability was 1.24.

Q: What about the relative viability (NCI-H23; first compound 0.1 µM) of the same compound?
A: The relative viability was 1.09.

Q: What about the relative viability (NCI-H23; first compound 0.3162 µM) of the same compound?
A: The relative viability was 1.21.

Q: And the relative viability (NCI-H23; first compound 1 µM)?
A: The relative viability was 0.91.

Q: What about the relative viability (NCI-H460; first compound 0.01 µM) of the same compound?
A: Its relative viability is 1.3.

Q: And the relative viability (NCI-H460; first compound 0.03162 µM)?
A: The relative viability was 1.33.

Q: And the relative viability (NCI-H460; first compound 0.3162 µM)?
A: The relative viability was 1.62.

Q: And the relative viability (NCI-H460; first compound 1 µM)?
A: Its relative viability is 1.04.

Q: What about the relative viability (NCI-H596; first compound 0.01 µM) of the same compound?
A: Its relative viability is 0.976.

Q: What about the relative viability (NCI-H596; first compound 0.03162 µM) of the same compound?
A: Its relative viability is 1.06.

Q: What about the relative viability (NCI-H596; first compound 0.1 µM) of the same compound?
A: Its relative viability is 1.03.

Q: What about the relative viability (NCI-H596; first compound 0.3162 µM) of the same compound?
A: The relative viability was 1.16.

Q: And the relative viability (NCI-H596; first compound 1 µM)?
A: Its relative viability is 0.923.

Q: And the relative viability (NCI-H727; first compound 0.01 µM)?
A: The relative viability was 1.39.

Q: And the relative viability (NCI-H727; first compound 0.03162 µM)?
A: The relative viability was 0.871.

Q: What about the relative viability (NCI-H727; first compound 0.1 µM) of the same compound?
A: The relative viability was 0.809.

Q: And the relative viability (NCI-H727; first compound 0.3162 µM)?
A: Its relative viability is 1.2.

Q: And the relative viability (NCI-H727; first compound 1 µM)?
A: Its relative viability is 0.783.

Q: And the relative viability (PC-14; first compound 0.01 µM)?
A: The relative viability was 0.894.

Q: What about the relative viability (PC-14; first compound 0.03162 µM) of the same compound?
A: Its relative viability is 0.855.

Q: What about the relative viability (PC-14; first compound 0.1 µM) of the same compound?
A: Its relative viability is 0.947.

Q: And the relative viability (PC-14; first compound 0.3162 µM)?
A: The relative viability was 0.962.

Q: And the relative viability (PC-14; first compound 1 µM)?
A: Its relative viability is 0.843.

Q: What about the relative viability (PC-3 [JPC-3]; first compound 0.01 µM) of the same compound?
A: Its relative viability is 0.895.

Q: What about the relative viability (PC-3 [JPC-3]; first compound 0.03162 µM) of the same compound?
A: Its relative viability is 0.862.

Q: What about the relative viability (PC-3 [JPC-3]; first compound 0.1 µM) of the same compound?
A: Its relative viability is 0.972.

Q: And the relative viability (PC-3 [JPC-3]; first compound 0.3162 µM)?
A: The relative viability was 0.966.

Q: What about the relative viability (PC-3 [JPC-3]; first compound 1 µM) of the same compound?
A: The relative viability was 0.939.

Q: And the relative viability (SW 1573; first compound 0.01 µM)?
A: The relative viability was 1.03.

Q: And the relative viability (SW 1573; first compound 0.03162 µM)?
A: Its relative viability is 0.991.

Q: What about the relative viability (SW 1573; first compound 0.1 µM) of the same compound?
A: The relative viability was 1.07.

Q: And the relative viability (SW 1573; first compound 0.3162 µM)?
A: The relative viability was 1.03.

Q: And the relative viability (SW 1573; first compound 1 µM)?
A: Its relative viability is 0.936.
